# Reference: a melting point compilation (Tetko et al.; mined from patent text by program, amines drawn as free bases though some values may be those of a salt)
row,SMILES,melting point
1,CCOC(=O)C1CCn2c(cc3ccccc32)C1O (configuration not stated),116 to 120 °C
2,O=C(OCc1ccccc1)c1cc(I)ccc1OCc1ccccc1,72 to 73 °C
3,Clc1ncc(CN2CC3(COc4cc5c(cc43)OCO5)c3ccccc32)s1 (configuration not stated),195 to 198 °C
4,C=C(C)COc1ccc(C)c2c1C(=O)CC2,74.2 to 75.2 °C
5,CCNC(=O)Nc1nc2cc(-c3cccnc3)cc(-c3nc(C)no3)n2n1,298 to 301 °C
6,O=C(c1ccc2[nH]ccc2c1)N1CCN(CCc2ccc([N+](=O)[O-])cc2)CC1,204 to 206 °C
7,CCOC(=O)NCC(=O)NNC1=NC(C)C(c2ccccc2)=NN1 (configuration not stated),144 to 146 °C
8,CCCc1c(OCCCCCC(=O)c2cc(OC)c(OC)cc2F)ccc(C(=O)OC)c1O,127 to 129 °C
9,Cc1ccc(Cc2c[nH]c(NCCCC3CCCc4cccnc43)nc2=O)cn1 (configuration not stated),75 to 80 °C
10,COc1cc(NC2=C(Cl)C(=O)c3ccccc3C2=O)ccc1S(=O)(=O)Nc1ccc(C)cc1,186 to 189 °C
11,CC(=O)NCOc1ccc(S(=O)(=O)N2C3CCC2CN(CC(=O)Nc2ccccc2C)C3)cc1,205 to 206 °C
12,CN1C(=O)[C@H](NC(=O)/C=C/c2ccc(F)cc2F)N=C(c2ccccc2)c2ccccc21,121 to 123 °C
13,CCOn1nnc2ccc(C(C)n3ccnc3)cc21 (configuration not stated),81.1 °C
14,Cc1c(NC(=O)CC(CSC(=O)Cc2ccccc2)c2ccccc2)cccc1C(=O)O (configuration not stated),135 to 137 °C
15,O=C(CN1CCC(Cc2ccccc2)CC1)Nc1ccc2c(c1)CC(=O)N2,166 to 170 °C
16,O=C(NCc1ccc(F)cc1)c1cccc(C(=O)NCc2ccc(F)cc2)c1,190 to 191 °C
17,Cc1noc(NS(=O)(=O)c2ccccc2-c2ccc(-c3ncco3)cc2CN(C)C(=O)CC(F)(F)F)c1C,85 to 100 °C
18,CCCCc1nc2cccc(C(=O)OC)c2n1Cc1ccc(-c2ncncc2C#N)cc1,131 to 133 °C
19,COC(=O)C=C(c1ccc(C#N)cc1)n1ccnc1,144 to 147 °C
20,CCOC(=O)CC(CC(=O)OCC)N1CCC(Nc2ncc3ncnc(Nc4cccc(Br)c4)c3n2)CC1,132 °C
21,Cc1c(CC2CCc3c(c4ccccc4n3Cc3ccccc3)C2=O)ncn1C(c1ccccc1)(c1ccccc1)c1ccccc1 (configuration not stated),78 to 80 °C
22,CC1(C)C(=O)Nc2ccc(C#N)cc2N(CC2CC2)C1=O,234 to 236 °C

row,SMILES,melting point
1,Nc1cccc(-c2ccc(CCN3CC4C(N)C4C3)cc2)n1 (configuration not stated),187 to 190 °C
2,CC(=O)SCC(Cc1ccccc1)C(=O)Nc1ccc(N(C)C)c(C(=O)O)c1 (configuration not stated),168 to 169 °C
3,CC1=NC(NC(=O)Nc2cccc(Br)c2)C(=O)N(CC(=O)N2CC3CCC(CC3)C2)c2c(C)cccc21 (configuration not stated),168 to 171 °C
4,O=C(Nc1ccc(Cl)cc1)ONC1=Nc2ccc(Cl)cc2C(c2ccccc2)=NC1,200 to 203 °C
5,Oc1ccc(-c2nnc(-c3cccc(-c4nnc(-c5ccc(O)cc5)o4)c3)o2)cc1,> 400 °C
6,CCCOCc1nc2nccnc2c(=O)[nH]1,158 to 160 °C
7,CCOC(=O)NNC(=O)Nc1ccc(C(F)(F)F)cc1,205 to 208 °C
8,CSc1ccc(-c2nn(Cc3ccc(F)cc3)c(=O)cc2-c2ccc(F)cc2)cc1,156 °C
9,CCc1cn(C2CC(O)C(CNCc3ccccc3Br)O2)c(=O)[nH]c1=O (configuration not stated),144 to 146 °C
10,O=C(O)C1=Cc2cc(Cl)c(Oc3ccc(C(F)(F)F)cc3)cc2OC1C(F)(F)F (configuration not stated),231 to 232 °C
11,"COc1cccc2c1C13CCN(C)C(C2)C1CCC(=O)C3 (single isomer, unassigned; (-))",145 to 147 °C
12,CC(=O)C(C)(C)CS(=O)(=O)c1ccccc1,56 to 58 °C
13,Fc1ccc(-c2[nH]cc(CCCN3CCCCC3)c2-c2ccncc2)cc1,195 to 197 °C
14,CCn1cc(C(=O)O)c(=O)c2cc(F)c(N3CCN(C)C(COC)C3)cc21 (configuration not stated),228 to 230 °C
15,CNC(=S)NS(=O)(=O)c1cc(CCNC(=O)/C=C/c2cccs2)ccc1OCCOC,140 °C
16,CC(O)C1(c2cccc(Cl)c2)CCCN(C)CC1 (configuration not stated),123 to 124 °C
17,CCOc1cc(OCc2ccc(CN(C)C)o2)cc2c1C(=O)N(COC(=O)c1c(Cl)cccc1Cl)S2(=O)=O,157 to 158 °C
18,COc1cc(OC)cc(-c2cc(=O)c3ccc(OCCCBr)cc3o2)c1,173 to 174 °C
19,CC(=S)NC[C@H]1CN(c2ccc(N3CCC4(CC3)OCCO4)c(F)c2)C(=O)O1,141 to 143 °C
20,CC1(C(=O)O)CCc2cc(O)c(C(C)(C)C)cc2O1 (configuration not stated),218 to 221 °C
21,O=C(Cn1c(=O)sc2ncc(Cl)cc21)N1CCN(CCO)CC1,198 to 200 °C
22,CCCCCCCCCCN(O)C(=O)NCCCC(=O)OC,89 to 90 °C

row,SMILES,melting point
1,Cc1cc(C(N)=O)c(N)s1,140 to 141 °C
2,CCOC(=O)C1=C(C)NC(N)=C(C(=O)OCC)C1c1ccco1 (configuration not stated),183 °C
3,O=c1c2ccccc2n(CCc2ccccc2)c(=O)n1S(=O)(=O)c1ccc(Cl)cc1,200 to 202 °C
4,COC(=O)c1ccc(OCC(O)c2ccc3c(c2)C(C)(C)CCC3(C)C)cc1O (configuration not stated),133 to 134 °C
5,CNc1cc(CC2(C)CC3C(=C(C)C(C)=C(N)C3C)O2)ccc1-c1ccn[nH]1 (configuration not stated),113 to 117 °C
6,CC(C)(C)OC(=O)NC(CO)COc1noc2ccc(Cl)cc12 (configuration not stated),121 to 122 °C
7,O=[N+]([O-])c1c(NCC(O)CO)cccc1NCC(O)CO (configuration not stated),138 °C
8,Cc1ccc(-c2nc3ccc(O)cc3n2Cc2ccccc2C(F)(F)F)cc1C,178 °C
9,NC(=O)N(O)CCNC(=O)c1ccc(-c2ccccc2)cc1,160 to 162 °C
10,O=C(c1ccc2c(c1)OCCO2)c1ccc2noc(-c3cccc(Cl)c3)c2c1,195 °C
11,c1c(C(CN2CCNCC2)N2CCNCC2)nc(N2CCCC2)nc1N1CCCC1 (configuration not stated),148 to 149 °C
12,O=C(N[C@H]1CCOC1=O)[C@H](Cc1ccccc1)NS(=O)(=O)c1cccc2ccccc12,93 to 94 °C
13,CCCCCCCCNC(=O)CC(=O)c1c2ccccc2cc2ccccc12,70 to 72 °C
14,O=C(NC1N=C(c2ccccc2F)c2ccccc2NC1=O)c1cc2ccccc2[nH]1 (racemic),290 to 291 °C
15,CNC(=O)CCCCCN(C)S(=O)(=O)c1ccc(Cl)c(COc2cccc3ccc(C)nc23)c1Cl,110 to 112 °C
16,COCCNS(=O)(=O)c1ccc2[nH]c(=O)c(=O)[nH]c2c1,264 to 267 °C
17,O=C1NC(=O)c2ccc(-c3ccc(F)cc3)cc2/C1=C/Nc1ccc(CN2CCCC2)cc1,152 to 153 °C
18,COCc1cc(C(C)(C)C)cc(C(C)(C)C)c1O,36 to 39 °C
19,CCOC(=O)C1(C(=O)OCC)CCC2(CC1)NCCc1cc(OC)ccc12,81 to 83 °C
20,CCOC(=O)c1cn(C)nc1Cl,65 to 66 °C

# Now from value to compound:
row,melting point,SMILES
1,174 to 178 °C,O=C1c2c(Br)cccc2S(=O)(=O)N1CSc1ccccc1
2,262 to 264 °C,CC1CC(=O)c2c(C(=O)Nc3ccc(F)cc3)c[nH]c2C1 (configuration not stated)
3,243 to 245 °C,COc1cccc(OC)c1C(=O)Nc1nnc(-c2cccc(O)c2)s1
4,165 °C,Cc1ccc(S(=O)(=O)N2[C@@H](c3ncon3)CC[C@H]2c2ccc(F)cc2)cc1 (racemic)
5,98.5 to 102 °C,O=C1CCCc2ccc(OCc3ccc4ccccc4n3)cc21
6,98 to 100 °C,C#CCN1C(=O)COc2cc(F)ccc21
7,135 to 136 °C,CC1=C(C(=O)OCCC#N)C(c2c(F)cccc2Cl)C(C(=O)OC2CCCC2)=C(C)N1 (configuration not stated)
8,47 to 48 °C,Cc1cc(S(=O)(=O)F)ccc1Br
9,98 to 100 °C,CCCc1ncc2cc(OC)nc(SC)n12
10,291 to 293 °C,Cc1nc2cc(Cl)ccc2c(=O)n1C1CCC(=O)NC1=O (configuration not stated)
11,86 to 88 °C,Fc1cccnc1C#CCCc1nc2ccccc2o1
12,171 to 172 °C,COc1ccc(-c2cnn3c(N)c(-c4cccc(Cl)c4)c(C)nc23)cc1
13,146 to 148 °C,NCCOc1cccc2c1CC(=O)N2
14,95 °C,COc1cccc(C2CCCN2S(=O)(=O)c2ccc(Cl)cc2)c1 (racemic)
15,221 to 222 °C,CC1(CNC(=O)OCc2ccc(Cl)cc2)Cn2cc([N+](=O)[O-])nc2O1 (configuration not stated)
16,196 to 197 °C,CC(C)(C)OC(=O)CCc1ccc(-c2nc(=O)c3ccccc3s2)nc1C#N
17,91 to 93 °C,CC(Oc1ccc(OC(F)(F)F)cc1)c1ccnc2ncnn12 (configuration not stated)
18,91 to 92 °C,Cc1onc(-c2ccc(Cl)cc2)c1CCl
19,178 to 181 °C,O=C(O)c1cccc(S(=O)(=O)CCO)c1[N+](=O)[O-]

row,melting point,SMILES
1,114 to 117 °C,Cc1nccc(N2CCC(O)(CN3CCN(C(=O)c4ccc(F)cc4)CC3)CC2)n1
2,261 to 264 °C,Cc1ncc([N+](=O)[O-])n1CCn1c(=O)[nH]c2ccccc2c1=O
3,60.9 to 61.8 °C,CCCCc1cnc(-c2ccc(C#N)cc2)nc1
4,117 to 118 °C,CCOC(=O)CC(C(=O)c1ccc(OC)cc1)c1ccc(OC)c(F)c1 (configuration not stated)
5,140 to 142 °C,Fc1cc(F)cc(NC(=S)c2ccccn2)c1
6,123 to 125 °C,NCCOc1cccc2[nH]ccc12
7,169 to 170 °C,O=C(CBr)Nc1cccc(F)c1C(=O)O
8,100 to 101 °C,Nc1ccc(CO)cc1[N+](=O)[O-]
9,69.5 to 70 °C,CC(=O)Oc1ccc(CCc2cccc(OC(C)=O)c2)cc1
10,137 to 139 °C,CCSC1=NCC(=O)N1c1cc(Cl)ccc1C
11,164 to 166 °C,N#CCC(=O)Nc1ccc(OCc2cccc(F)c2)cc1
12,37 to 38 °C,OCCCC#Cc1ccc2ccccc2c1
13,179 to 180 °C,O=C(OCn1c(=O)[nH]cc(F)c1=O)c1cccnc1
14,212 to 215 °C,Cc1cccc(C)c1NC(=O)c1ccc([N+](=O)[O-])cc1
15,320 °C,O=c1[nH]c2ccccc2n(Cc2nnn[nH]2)c1=O
16,180 °C,Fc1cccc2sc(S)nc12
17,152 to 153 °C,Clc1ccc2c(c1)N=C(NCc1cccnc1)c1ccccc1S2
18,342 °C,Cn1c(=O)c(=O)[nH]c2cc(Cl)ccc21
19,198 to 200 °C,C#Cc1ccc2c(c1)C=C(C(=O)O)C(C(F)(F)F)O2 (configuration not stated)
